Results reported in US10005844B2, “Polynucleotides encoding anti-Notch1 NRR antibody polypeptides” (Genentech, Inc., priority 2007, dated 2018).

Assays:
Format in all cases: cell-based
Mouse C2C12 myoblasts = experiment: C2C12 myoblast differentiation assay; conditions: Antibody A 200 ng/ml, Compound E 1 uM, four days, FIG. 9 and 10
Procedure: Mouse C2C12 myoblasts differentiate into myotubes when treated with differentiation medium. Co-culture with Jagged1 ligand-expressing cells inhibits differentiation by stimulating Notch signaling.
In particular, mouse C2C12 myoblast cells were plated in a 24-well tissue culture dish with a sterile round, 10 mm cover slip in the bottom at 2.5×10^4 cells per ml, using 1 ml per well. Cells were allowed to attach and grow for 22 hours in growth medium (DMEM with 10% FBS) at 37° C., 5% CO2. The growth medium was then aspirated and differentiation medium (DM) was added (DMEM with 6% Horse Serum). Cells were treated with: A. DM alone; B. DM with 3T3-J1 cells; C. […] Cells were incubated at 37° C., 5% CO2 under these conditions for four days. Cover slips were retrieved, and cells were fixed with 4% paraformaldehyde and permeablized with 0.2% Triton X-100 in PBS. Cells were then blocked with 10% FBS in PBS. An antibody recognizing Myosin Heavy Chain (Millipore, Anti-Myosin HC, clone A4.1025 ascites) and a goat anti-mouse IgG (H+L) secondary antibody conjugated to Alexa® 488 (Molecular Probes) was used to stain the differentiated myotubes. DAPI was used to counter-stain the nuclei. Images of three different fields were taken for each condition. Metamorph software (Molecular Devices) was used to count the number of nuclei and the area of Alexa® 488 stain. […]

OVCAR-3 = experiment: CellTiter-Glo Luminescent Cell Viability Assay, OVCAR-3; conditions: ovarian cancer cell line, FIG. 17
From the text: (§1) The effects of anti-Notch1 NRR and the gamma secretase inhibitors DAPT and “Compound E” (CmpE) on a panel of cancer cell lines were examined. […] This assay determines the number of viable cells in culture based on quantitation of ATP present, which is an indication of metabolically active cells. Luminescence is quantified as “relative luminescent units” in FIG. 17 (y-axis).

MT-3 = experiment: CellTiter-Glo Luminescent Cell Viability Assay, MT-3; conditions: breast carcinoma line, FIG. 17
From the text: as §1

Row | SMILES | Differentiation of C2C12 myoblasts blocked by Jagged1 co-culture (Mouse C2C12 myoblasts) | Cell viability (ATP levels), OVCAR-3 (OVCAR-3) | Cell viability (ATP levels), MT-3 (MT-3)
1 | C[C@H](NC(=O)Cc1cc(F)cc(F)c1)C(=O)N[C@H]1N=C(c2ccccc2)c2ccccc2N(C)C1=O [Compound E] | restored differentiation | reduced ATP levels | reduced ATP levels
2 | C[C@H](NC(=O)Cc1cc(F)cc(F)c1)C(=O)N[C@H](C(=O)OC(C)(C)C)c1ccccc1 [DAPT, N—[N-(3,5-difluorophenacetyl)-L-alanyl]-S-phenylglycine t-butyl ester] |  | reduced ATP levels | reduced ATP levels
